The source of these data is ChEMBL document CHEMBL1130446, “The synthesis of CD - ring modified 1,25-dihydroxy vitamin D analogues: Six-membered D-ring analogues II” (Bioorg Med Chem Lett, 1997).

The test system of one series is Mus musculus. The series can be described thus: In vivo effect in vitamin D-replete normal NMRI mice by measuring calcium levels in serum. Format: functional.
Another series concerns HL-60. The series can be described thus: Compound was tested in vitro for its biological evaluation against HL-60 cell line. The series is classed as functional, Homo sapiens.
For a further series, the system named is MG-63. The series can be described thus: Compound was tested in vitro for its biological evaluation against MG-63 cell line. The series is classed as functional, Homo sapiens.
Another series relates to MCF7. Put plainly: Compound was tested in vitro for its biological evaluation against MCF-7 cell line. The series is classed as functional, Homo sapiens.
Series [1] in a line: Ratio of biological evaluation of compound in keratinocytes and calcium sreum was determined. value expressed as relative toxicity. The series is classed as cell-based.
For series [2], the target named is T1, Vitamin D3 receptor (Sus scrofa domesticus) (UniProt Q7M3G7).
T1 sequence (whole entry): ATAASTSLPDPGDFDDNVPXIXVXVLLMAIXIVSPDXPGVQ
Put plainly: Compound was tested for its relative affinity to pig intestinal mucosa Vitamin D3 receptor using [3H]- 1 alpha,25(OH)2 D3 radioligand compared to 1 alpha 25-(OH)2D3. The series is classed as tissue-based.

Another series concerns Keratinocyte. Put plainly: Compound was tested in vitro for its biological evaluation against keratinocytes cell line. Format: functional.
A short description of series [3]: Ratio of biological evaluation of compound in keratinocytes and calcium serum was determined. value expressed as relative toxicity. The series is classed as cell-based.

Molecules are shown by their SMILES. A value given as a limit tells only on which side of the number the result lay.

For the molecule `C=C1C(=CC=CC2CCCC([C@@H](C)CC#CC(C)(C)O)C2(C)C)C[C@@H](O)C[C@@H]1O` (stereo not given in full), the Activity with Mus musculus stood at 0.25; in the series on HL-60, 10; in the series with MG-63, 20; in the series on MCF7 it was 4; in the series on Keratinocyte it was 7. Besides, the Ratio in series [1] is 28. The Relative affinity in series [2] was 0.7.
`C=C1/C(=C\C=C2/CCC[C@]3(C)C([C@H](C)CC#CC(C)(C)O)=CC[C@@H]23)C[C@@H](O)C[C@@H]1O` [ILX23-7553]: the Activity with Mus musculus turned out to be 10; in the series on HL-60, 1000; in the series with MG-63, 1000; with MCF7 it was 4250; in the series with Keratinocyte, 8000. Moreover, in series [1], the Ratio was determined as 1300. The molecule also displayed a Relative affinity in series [2] of 70.
Consider `C=C1C(=CC=CC2CCCC([C@H](C)CC#CC(C)(C)O)C2(C)C)C[C@@H](O)C[C@@H]1O` (stereo not given in full), for which the Activity was less than 0.1 with Mus musculus, 85 with HL-60, 100 in the series on MCF7 and 200 with Keratinocyte. In addition, in series [3], the Ratio worked out at 2000. This molecule also yielded a Relative affinity in series [2] of 60.
